Assay results as given in US11952584B2, “Functional peptides having antimicrobial activity against phytopathogenic microorganisms” (TOYOTA JIDOSHA KABUSHIKI KAISHA, priority 2019, dated 2024).
Where two headings read alike, the source gives them in different places.

What was measured:
Format in all cases: cell-based
[1] = tested on: Colletotrichum destructivum; conditions: 25° C., 1 day or 2 days
[2] = tested on: Fusarium oxysporum
[3] = tested on: Colletotrichum orbiculare; conditions: 25° C., 1 day or 2 days
[4] = tested on: Botrytis cinerea; conditions: 25° C., 1 day or 2 days
[5] = tested on: Pyricularia oryzae; conditions: 25° C., 1 day or 2 days

FSERTRKF (listed as Solanum lycopersicum) [TsORF18-2-8aa-7]
0: Plate antimicrobial activity test Colletotrichum destructivum (level) ([1]; peptide 1 μM) | Plate antimicrobial activity test Colletotrichum destructivum (level) ([1]; peptide 10 μM) | Plate antimicrobial activity test Colletotrichum destructivum (level) ([1]; peptide 100 μM) | Plate antimicrobial activity test Fusarium oxysporum (level) [2] | Plate antimicrobial activity test Collectotrichum orbiculare (level) ([3]; peptide 1 μM) | Plate antimicrobial activity test Collectotrichum orbiculare (level) ([3]; peptide 10 μM) | Plate antimicrobial activity test Collectotrichum orbiculare (level) ([3]; peptide 100 μM) | Plate antimicrobial activity test Botrytis cinerea (level) ([4]; peptide 1 μM) | Plate antimicrobial activity test Botrytis cinerea (level) ([4]; peptide 10 μM) | Plate antimicrobial activity test Botrytis cinerea (level) ([4]; peptide 100 μM) | Plate antimicrobial activity test Pyricularia oryzae (level) ([5]; peptide 1 μM) | Plate antimicrobial activity test Pyricularia oryzae (level) ([5]; peptide 10 μM) | Plate antimicrobial activity test Pyricularia oryzae (level) ([5]; peptide 100 μM)

YYGFPAFS (listed as Solanum lycopersicum) [TsORF18-2-8aa-1]
0: Plate antimicrobial activity test Colletotrichum destructivum (level) ([1]; peptide 1 μM) | Plate antimicrobial activity test Colletotrichum destructivum (level) ([1]; peptide 10 μM) | Plate antimicrobial activity test Colletotrichum destructivum (level) ([1]; peptide 100 μM) | Plate antimicrobial activity test Fusarium oxysporum (level) [2] | Plate antimicrobial activity test Collectotrichum orbiculare (level) ([3]; peptide 1 μM) | Plate antimicrobial activity test Collectotrichum orbiculare (level) ([3]; peptide 10 μM) | Plate antimicrobial activity test Collectotrichum orbiculare (level) ([3]; peptide 100 μM) | Plate antimicrobial activity test Botrytis cinerea (level) ([4]; peptide 1 μM) | Plate antimicrobial activity test Botrytis cinerea (level) ([4]; peptide 10 μM) | Plate antimicrobial activity test Botrytis cinerea (level) ([4]; peptide 100 μM) | Plate antimicrobial activity test Pyricularia oryzae (level) ([5]; peptide 1 μM) | Plate antimicrobial activity test Pyricularia oryzae (level) ([5]; peptide 10 μM) | Plate antimicrobial activity test Pyricularia oryzae (level) ([5]; peptide 100 μM)

AFSER (listed as Solanum lycopersicum) [TsORF18-2-5aa-6]
0: Plate antimicrobial activity test Colletotrichum destructivum (level) ([1]; peptide 1 μM) | Plate antimicrobial activity test Colletotrichum destructivum (level) ([1]; peptide 10 μM) | Plate antimicrobial activity test Colletotrichum destructivum (level) ([1]; peptide 100 μM) | Plate antimicrobial activity test Fusarium oxysporum (level) [2] | Plate antimicrobial activity test Collectotrichum orbiculare (level) ([3]; peptide 1 μM) | Plate antimicrobial activity test Collectotrichum orbiculare (level) ([3]; peptide 10 μM) | Plate antimicrobial activity test Collectotrichum orbiculare (level) ([3]; peptide 100 μM) | Plate antimicrobial activity test Botrytis cinerea (level) ([4]; peptide 1 μM) | Plate antimicrobial activity test Botrytis cinerea (level) ([4]; peptide 10 μM) | Plate antimicrobial activity test Botrytis cinerea (level) ([4]; peptide 100 μM) | Plate antimicrobial activity test Pyricularia oryzae (level) ([5]; peptide 1 μM) | Plate antimicrobial activity test Pyricularia oryzae (level) ([5]; peptide 10 μM) | Plate antimicrobial activity test Pyricularia oryzae (level) ([5]; peptide 100 μM)

FSERT (listed as Solanum lycopersicum) [TsORF18-2-5aa-7]
0: Plate antimicrobial activity test Colletotrichum destructivum (level) ([1]; peptide 1 μM) | Plate antimicrobial activity test Colletotrichum destructivum (level) ([1]; peptide 10 μM) | Plate antimicrobial activity test Colletotrichum destructivum (level) ([1]; peptide 100 μM) | Plate antimicrobial activity test Fusarium oxysporum (level) [2] | Plate antimicrobial activity test Collectotrichum orbiculare (level) ([3]; peptide 1 μM) | Plate antimicrobial activity test Collectotrichum orbiculare (level) ([3]; peptide 10 μM) | Plate antimicrobial activity test Collectotrichum orbiculare (level) ([3]; peptide 100 μM) | Plate antimicrobial activity test Botrytis cinerea (level) ([4]; peptide 1 μM) | Plate antimicrobial activity test Botrytis cinerea (level) ([4]; peptide 10 μM) | Plate antimicrobial activity test Botrytis cinerea (level) ([4]; peptide 100 μM) | Plate antimicrobial activity test Pyricularia oryzae (level) ([5]; peptide 1 μM) | Plate antimicrobial activity test Pyricularia oryzae (level) ([5]; peptide 10 μM) | Plate antimicrobial activity test Pyricularia oryzae (level) ([5]; peptide 100 μM)

ILLSLEIFERKFSRSVWYYGFP [TsORF18-1]
0: Plate antimicrobial activity test Colletotrichum destructivum (level) ([1]; peptide 1 μM) | Plate antimicrobial activity test Colletotrichum destructivum (level) ([1]; peptide 10 μM) | Plate antimicrobial activity test Colletotrichum destructivum (level) ([1]; peptide 100 μM) | Plate antimicrobial activity test Fusarium oxysporum (level) [2] | Plate antimicrobial activity test Collectotrichum orbiculare (level) ([3]; peptide 1 μM) | Plate antimicrobial activity test Collectotrichum orbiculare (level) ([3]; peptide 10 μM) | Plate antimicrobial activity test Collectotrichum orbiculare (level) ([3]; peptide 100 μM) | Plate antimicrobial activity test Botrytis cinerea (level) ([4]; peptide 1 μM) | Plate antimicrobial activity test Botrytis cinerea (level) ([4]; peptide 10 μM) | Plate antimicrobial activity test Botrytis cinerea (level) ([4]; peptide 100 μM) | Plate antimicrobial activity test Pyricularia oryzae (level) ([5]; peptide 1 μM) | Plate antimicrobial activity test Pyricularia oryzae (level) ([5]; peptide 10 μM) | Plate antimicrobial activity test Pyricularia oryzae (level) ([5]; peptide 100 μM)
